Where two headings read alike, the source gives them in different places.
Experiments:
[1] = biological target: T1, Cyp7b (Mus musculus, UniProt Q60991); test: Catalytic activity of Cyp7b expressed in mammalian cell lines (NADPH-dependent conversion, TLC)
T1 sequence (Q60991 1-507): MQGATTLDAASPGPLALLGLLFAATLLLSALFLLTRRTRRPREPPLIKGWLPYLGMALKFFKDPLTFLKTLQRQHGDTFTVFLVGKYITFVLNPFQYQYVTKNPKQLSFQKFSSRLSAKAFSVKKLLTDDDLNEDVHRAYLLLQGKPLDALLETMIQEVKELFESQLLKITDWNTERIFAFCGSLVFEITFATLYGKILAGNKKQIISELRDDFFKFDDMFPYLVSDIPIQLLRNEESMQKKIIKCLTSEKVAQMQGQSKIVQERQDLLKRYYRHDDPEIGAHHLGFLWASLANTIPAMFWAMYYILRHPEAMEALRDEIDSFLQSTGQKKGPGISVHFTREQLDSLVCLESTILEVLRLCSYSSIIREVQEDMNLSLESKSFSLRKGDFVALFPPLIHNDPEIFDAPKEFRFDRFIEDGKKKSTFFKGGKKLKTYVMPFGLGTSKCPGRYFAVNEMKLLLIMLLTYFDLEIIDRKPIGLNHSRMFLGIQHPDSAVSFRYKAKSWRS
Source text: To examine the catalytic activity of the enzyme Cyp7b CDNAs were expressed in mammalian cell lines.

[2] = biological target: T1, Cyp7b
[3] = biological target: T2, GR (Homo sapiens, UniProt P04150); test: Cis-trans co-transfection assay (MMTV-LUC / pRShGR) in CHO cells; format: cell-based; conditions: in presence of a GR activating concentration of corticosterone, FIG. 4
T2 construct: expressed in transfected cells; host or cells: CHO cells, calcium phosphate transfection
T2 sequence (P04150 1-777): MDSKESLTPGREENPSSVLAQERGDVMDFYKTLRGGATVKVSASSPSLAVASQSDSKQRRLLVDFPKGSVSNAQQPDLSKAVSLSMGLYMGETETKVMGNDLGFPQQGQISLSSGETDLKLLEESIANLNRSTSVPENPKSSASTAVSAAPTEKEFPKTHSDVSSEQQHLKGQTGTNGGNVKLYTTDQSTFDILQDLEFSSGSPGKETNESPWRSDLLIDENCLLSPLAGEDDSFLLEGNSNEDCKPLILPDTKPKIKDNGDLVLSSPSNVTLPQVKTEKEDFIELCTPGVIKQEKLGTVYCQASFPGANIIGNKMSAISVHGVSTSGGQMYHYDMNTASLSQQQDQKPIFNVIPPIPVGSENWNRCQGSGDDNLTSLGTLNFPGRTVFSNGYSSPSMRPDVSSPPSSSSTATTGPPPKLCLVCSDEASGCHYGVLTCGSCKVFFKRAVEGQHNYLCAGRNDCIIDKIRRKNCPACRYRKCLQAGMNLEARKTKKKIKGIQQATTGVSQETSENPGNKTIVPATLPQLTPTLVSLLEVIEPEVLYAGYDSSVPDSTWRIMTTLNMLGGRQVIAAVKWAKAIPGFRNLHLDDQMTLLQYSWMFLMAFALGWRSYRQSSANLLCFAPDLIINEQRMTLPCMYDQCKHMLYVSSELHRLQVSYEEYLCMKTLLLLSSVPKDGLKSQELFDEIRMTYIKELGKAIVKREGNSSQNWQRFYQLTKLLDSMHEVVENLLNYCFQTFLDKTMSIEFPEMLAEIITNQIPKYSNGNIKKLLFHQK
Experimental: Chinese hamster ovary (CHO) cells were maintained and transfected in Dulbecco's modification of Eagle's medium (DMEM) supplemented with 15% foetal bovine serum, 100 IU/ml penicillin, 100 μg/ml streptomycin and […] L-glutamine (all Gibco BRL, Paisley, UK).
24 hours prior to transfection CHO cells were plated at a density of 3×10^5/60 mm dish (Costar UK). Cells were transfected by the clacium phosphate method. Briefly, 5 μg of MMTV-LUC and 1 μg of pRShGR or 5 μg of pSV2 as a control for transfection efficiency were made up to a total of 10 μg/plate of DNA with pGEM3. 30 μl of 2.5M CaCl2 was diluted ten-fold with sterile water and 300 μl was added to the DNA. […]
The following day the cells were washed in PBS, lysed with 0.3 ml of lysis buffer (25 mM Tris-phosphate pH 7.8, 2 mM DTT, 1% Triton X-100 and 10% glycerol), scraped, centrifuged and the supernatant assayed in duplicate in a Berthold luminometer in a total volume of 250 μl, comprising 40 μl of cell extract, 5 μl of 30 mM ATP, 100 μl of assay buffer (20 mM tricine, […] (MgCO3)4.Mg(OH)2.%H2O, 2.67 mM MgSO4, Q1 mM EDTA, 33.3 mM DTT, 0.2 mg/ml coenzyme A) and 105 μl luciferin (Promega UK) injected to initiate the reaction. Light emission was measured over 10 seconds and relative light units/microgram of protein was calculated.

[4] = biological target: T1, Cyp7b; remark: listed apart in the source
[5] = substrate: C[C@]12CC[C@H](O)CC1=CC[C@@H]1[C@@H]2CC[C@]2(C)C(=O)CC[C@@H]12; test: purified protein, by the assay type; conditions: other: cell extracts, NADPH-dependent conversion
[6] = cell extracts, NADPH-dependent conversion
[7] = relative to DHEA and pregnenolone

## C[C@H](CCCC(C)(C)O)[C@H]1CC[C@H]2[C@@H]3CC=C4C[C@@H](O)CC[C@]4(C)[C@H]3CC[C@]12C [25-hydroxycholesterol]
[1]
  activity of the expressed enzyme against the steroid as substrate: less active
[2]
  conversion of labelled steroid by Cyp7b microsomes to a lower mobility form on TLC: converted by the enzymes

## C[C@]12CC[C@H](O)CC1=C[C@@H](O)[C@@H]1[C@@H]2CC[C@]2(C)C(=O)CC[C@@H]12 [7HD, 7α-hydroxydehydroepi-androsterone]
[3]
  antagonism of corticosterone effect in activating GR-mediated transcription (fold induction of luciferase): acts as an antagonist

## CC(=O)[C@H]1CC[C@H]2[C@@H]3CC=C4C[C@@H](O)CC[C@]4(C)[C@H]3CC[C@]12C [pregnenolone]
[4]
  release of 3H into the aqueous phase: efficiently released
[1]; [6]
  Km: 3.6 µM
  Vmax: 34 pmol/min/mg
[2]
  conversion of labelled steroid by Cyp7b microsomes to a lower mobility form on TLC: converted by the enzymes

## C[C@]12CCC(=O)C=C1CC[C@@H]1[C@@H]2[C@@H](O)C[C@@]2(C)[C@H]1CC[C@]2(O)C(=O)CO [cortisol]
[2]
  conversion of labelled steroid by Cyp7b microsomes to a lower mobility form on TLC: at best inefficiently metabolised, if at all

## CC(=O)[C@H]1CC[C@H]2[C@@H]3CCC4=CC(=O)CC[C@]4(C)[C@H]3CC[C@]12C [progesterone]
[2]
  conversion of labelled steroid by Cyp7b microsomes to a lower mobility form on TLC: at best inefficiently metabolised, if at all

## C[C@]12CC[C@H]3[C@@H](CCC4=CC(=O)CC[C@@]43C)[C@@H]1CC[C@@H]2O [testosterone]
[1]; [7]
  activity of the expressed enzyme against the steroid as substrate: low to undetectable activity
[2]
  conversion of labelled steroid by Cyp7b microsomes to a lower mobility form on TLC: at best inefficiently metabolised, if at all

## C[C@]12CC[C@@H]3c4ccc(O)cc4CC[C@H]3[C@@H]1CC[C@@H]2O [estradiol, 17β-estradiol]
[1]
  activity of the expressed enzyme against the steroid as substrate: less active
[2]
  conversion of labelled steroid by Cyp7b microsomes to a lower mobility form on TLC: converted by the enzymes

## C[C@]12CC[C@H](O)CC1=CC[C@@H]1[C@@H]2CC[C@]2(C)C(=O)CC[C@@H]12 [DHEA, dehydroepiandrosterone]
[2]
  conversion of labelled steroid by Cyp7b microsomes to a lower mobility form on TLC: converted
[3]
  antagonism of corticosterone effect in activating GR-mediated transcription (fold induction of luciferase): not

## C[C@]12CC[C@H](O)C[C@@H]1CC[C@@H]1[C@@H]2CC[C@]2(C)[C@@H](O)CC[C@@H]12 [5α-androstane-3β, 17β-diol]
[1]; [7]
  activity of the expressed enzyme against the steroid as substrate: less active

## C[C@]12C[C@H](O)[C@H]3[C@@H](CCC4=CC(=O)CC[C@@]43C)[C@@H]1CC[C@@H]2C(=O)CO [corticosterone]
[1]
  activity of the expressed enzyme against the steroid as substrate: low to undetectable activity
[2]
  conversion of labelled steroid by Cyp7b microsomes to a lower mobility form on TLC: at best inefficiently metabolised, if at all

B1: Cyp7b (Mus musculus) (protein)
chain: T1 sequence (Q60991 1-507)
[5]
  Km: 13.3 µM
  Vmax: 288 pmol/min/mg

Reference: patent US6420353B1, “Use of 7 α-substituted steroid to treat neuropsychiatric, immune or endocrine disorders” (BTG International Limited, priority 1996, dated 2002)
